# Laboratory results as given in patent US5059590A, “Imidazole derivatives, process for production thereof, and use thereof” (Yamasa Shoyu Kabushiki Kaisha, priority 1988, dated 1991).
# What was measured:
# KU-2 = experiment: In vitro anti-proliferative activity against human tumor cell lines (KU-2); assay type: cell-based; details: KU-2, Renal cell carcinoma, 72 hours
# Description: (§1) In vitro anti-proliferative activity against human tumor cell lines
# (§2) Test Compound: 5-ethynyl-1-β-D-ribofuranosylimidazole-4-carboxamide
# (§3) A variety of human tumor cell lines are suspended in media specified according to the species of the cell lines to predetermined cell concentrations as shown in the following Table.
# (§4) 1 ml of the resulting cell suspension is seeded into each well of a 24 multi-well plate and incubated in a 5% CO2 -incubator at 37° C. for 24 hours. The culture medium is then replaced by a medium containing no test compound or by an appropriate amount of a serially diluted test compound solution. […] The number of the cells in each well is counted with a Coulter counter (Model ZB, Coulter Electronics), and the growth inhibition percent (%) of the cells at each concentration of a test compound is determined by the following equation: [formula] Tx: Number of the cells in a well containing a test compound as counted upon completion of the incubation (cells/ml) […] Cx: Number of the cells in a well containing no test compound as counted upon completion of the incubation (cells/ml)
# (§5) Co: Number of the cells in a well containing no test compound as counted at the initiation of the incubation (cells/ml) […]
# QG-56 = experiment: In vitro anti-proliferative activity against human tumor cell lines (QG-56); assay type: cell-based; details: QG-56, Lung squamous carcinoma, 72 hours
# Description: as §1, §2, §3, §4, §5
# sarcoma 180 = experiment: In vivo antitumor activity against sarcoma 180 intracutaneously implanted into BALB/c mice; parameters: species or system mouse; key to Tumor growth rate (Rt): R = tumor volume at time / tumor volume on day 8 (A/A8); details: for antitumor activity: i.v.
# Description: In vivo antitumor activity against sarcoma 180 intracutaneously implanted into BALB/c mice
# Three million (3×10^6) Sarcoma 180 cells are intracutaneously implanted at the ventral site of BALB/c mice (male, 5 weeks old). Eight days after the implantation when the tumor volume reached 200 to 300 mm^3, the mice are divided into groups (6 mice/group), and the treatment with a test drug was started. The test drug is dissolved in distilled water and intravenously administered to the mice at a rate of 0.1 ml per 10 g of the body weight thereof. In accordance with two different schedules, 5-ethynyl01β-D-ribofuranosylimidazole-4-carboxamide is administered once or three times, i.e., once at a dose of 250 mg/kg on day 8 (single-dose group) or three times at a dose of 125 mg/kg on days 8, 12 and 16 (multiple-dose group).
# Each mouse is weighed, and the width (a mm) and length (b mm) of the tumor thereof are measured twice a week to determine the tumor volume (A mm^3) from the following equation: […]
# Subsequently, the tumor growth rate (R) is determined as follows on the basis of the tumor volume (A8) on day 8 after the implantation of the tumor cells :
# R: Tumor growth rate after a predetermined period from the tumor implantation
# A: Tumor volume after a predetermined period from the tumor implantation
# A8 : Tumor volume as determided 8 days after the tumor implantation
# T/C(%) is further obtained from the following equation by comparison between the tumor growth rate in the test group (Rt) and that in the control group (Rc):
# Single-dose group: 250 mg/kg of the drug was intravenously administered o
# day 8 after the tumor implantation.
# Multipledose group: 125 mg/kg of the drug was intravenously administered
# on days 8, 12 and 16 after the tumor implantation.
# Dul45 = experiment: In vitro anti-proliferative activity against human tumor cell lines (Dul45); assay type: cell-based; details: Dul45, Prostate carcinoma, 72 hours
# Description: as §1, §2, §3, §4, §5
# U-2OS = experiment: In vitro anti-proliferative activity against human tumor cell lines (U-2OS); assay type: cell-based; details: U2OS, Osteogenic sarcoma, 72 hours
# Description: as §1, §2, §3, §4, §5
# HEp-2 = experiment: In vitro anti-proliferative activity against human tumor cell lines (HEp-2); assay type: cell-based; details: HEp-2, Laryngeal carcinoma, 72 hours
# Description: as §1, §2, §3, §4, §5
# PANC-1 = experiment: In vitro anti-proliferative activity against human tumor cell lines (PANC-1); assay type: cell-based; details: PANC-1, Pancreatic carcinoma, 72 hours
# Description: as §1, §2, §3, §4, §5
# A549 = experiment: In vitro anti-proliferative activity against human tumor cell lines (A549); assay type: cell-based; details: A549, Lung carcinoma, 72 hours
# Description: as §1, §2, §3, §4, §5
# [1] = multiple-dose group, 125 mg/kg i.v. days 8, 12, 16, day 8 after implantation
# [2] = multiple-dose group, 125 mg/kg i.v. days 8, 12, 16, day 12
# [3] = multiple-dose group, 125 mg/kg i.v. days 8, 12, 16, day 15, * = P < 0.05 vs control
# [4] = multiple-dose group, 125 mg/kg i.v. days 8, 12, 16, day 19, * = P < 0.05 vs control
# [5] = multiple-dose group, 125 mg/kg i.v. days 8, 12, 16, day 22, * = P < 0.05 vs control
# [6] = multiple-dose group, 125 mg/kg i.v. days 8, 12, 16, day 26, * = P < 0.05 vs control
# [7] = multiple-dose group, 125 mg/kg i.v. days 8, 12, 16, day 29, * = P < 0.05 vs control
# [8] = multiple-dose group, 125 mg/kg i.v. days 8, 12, 16, day 33
# [9] = single-dose group, 250 mg/kg i.v. day 8, day 8 after implantation
# [10] = single-dose group, 250 mg/kg i.v. day 8, day 12, * = P < 0.05 vs control
# [11] = single-dose group, 250 mg/kg i.v. day 8, day 15, * = P < 0.05 vs control
# [12] = single-dose group, 250 mg/kg i.v. day 8, day 19, * = P < 0.05 vs control
# [13] = single-dose group, 250 mg/kg i.v. day 8, day 22, * = P < 0.05 vs control
# [14] = single-dose group, 250 mg/kg i.v. day 8, day 26, * = P < 0.05 vs control
# [15] = single-dose group, 250 mg/kg i.v. day 8, day 29, * = P < 0.05 vs control
# [16] = single-dose group, 250 mg/kg i.v. day 8, day 33, * = P < 0.05 vs control
smiles,measurement,setting,value
C#Cc1c(C(N)=O)ncn1[C@@H]1O[C@H](CO)[C@@H](O)[C@H]1O [5-ethynyl-1-β-D-ribofuranosylimidazole-4-carboxamide],IC50,KU-2,< 0.1 µg/mL
same,IC50,QG-56,0.37 µg/mL
same,antitumor activity,sarcoma 180; 125 mg/kg every 4 days 3 times in total,remarkable antitumor activity
same,Body weight,sarcoma 180; [1],26 g
same,T/C (%),sarcoma 180; [1],100%
same,Tumor growth rate (Rt),sarcoma 180; [1],1.0
same,Body weight,sarcoma 180; [2],26 g
same,T/C (%),sarcoma 180; [2],81%
same,Tumor growth rate (Rt),sarcoma 180; [2],1.5
same,Body weight,"sarcoma 180; multiple-dose group, 125 mg/kg i.v. days 8, 12, 16, day 15",25 g
same,T/C (%),sarcoma 180; [3],51%
same,Tumor growth rate (Rt),sarcoma 180; [3],1.5
same,Body weight,"sarcoma 180; multiple-dose group, 125 mg/kg i.v. days 8, 12, 16, day 19",25 g
same,T/C (%),sarcoma 180; [4],45%
same,Tumor growth rate (Rt),sarcoma 180; [4],1.9
same,Body weight,"sarcoma 180; multiple-dose group, 125 mg/kg i.v. days 8, 12, 16, day 22",26 g
same,T/C (%),sarcoma 180; [5],37%
same,Tumor growth rate (Rt),sarcoma 180; [5],2.6
same,Body weight,"sarcoma 180; multiple-dose group, 125 mg/kg i.v. days 8, 12, 16, day 26",26 g
same,T/C (%),sarcoma 180; [6],39%
same,Tumor growth rate (Rt),sarcoma 180; [6],4.7
same,Body weight,"sarcoma 180; multiple-dose group, 125 mg/kg i.v. days 8, 12, 16, day 29",26 g
same,T/C (%),sarcoma 180; [7],42%
same,Tumor growth rate (Rt),sarcoma 180; [7],7.0
same,Body weight,sarcoma 180; [8],27 g
same,T/C (%),sarcoma 180; [8],53%
same,Tumor growth rate (Rt),sarcoma 180; [8],11
same,antitumor activity,sarcoma 180; once at a dose of 250 mg/kg,remarkable antitumor activity
same,Body weight,sarcoma 180; [9],25 g
same,T/C (%),sarcoma 180; [9],100%
same,Tumor growth rate (Rt),sarcoma 180; [9],1.0
same,Body weight,"sarcoma 180; single-dose group, 250 mg/kg i.v. day 8, day 12",24 g
same,T/C (%),sarcoma 180; [10],65%
same,Tumor growth rate (Rt),sarcoma 180; [10],1.2
same,Body weight,"sarcoma 180; single-dose group, 250 mg/kg i.v. day 8, day 15",25 g
same,T/C (%),sarcoma 180; [11],45%
same,Tumor growth rate (Rt),sarcoma 180; [11],1.3
same,Body weight,"sarcoma 180; single-dose group, 250 mg/kg i.v. day 8, day 19",25 g
same,T/C (%),sarcoma 180; [12],46%
same,Tumor growth rate (Rt),sarcoma 180; [12],2.0
same,Body weight,"sarcoma 180; single-dose group, 250 mg/kg i.v. day 8, day 22",26 g
same,T/C (%),sarcoma 180; [13],34%
same,Tumor growth rate (Rt),sarcoma 180; [13],2.4
same,Body weight,"sarcoma 180; single-dose group, 250 mg/kg i.v. day 8, day 26",26 g
same,T/C (%),sarcoma 180; [14],39%
same,Tumor growth rate (Rt),sarcoma 180; [14],4.7
same,Body weight,"sarcoma 180; single-dose group, 250 mg/kg i.v. day 8, day 29",26 g
same,T/C (%),sarcoma 180; [15],39%
same,Tumor growth rate (Rt),sarcoma 180; [15],6.6
same,Body weight,"sarcoma 180; single-dose group, 250 mg/kg i.v. day 8, day 33",27 g
same,T/C (%),sarcoma 180; [16],45%
same,Tumor growth rate (Rt),sarcoma 180; [16],9.5
same,IC50,Dul45,< 0.1 µg/mL
same,IC50,U-2OS,0.62 µg/mL
same,IC50,HEp-2,0.47 µg/mL
same,IC50,PANC-1,0.9 µg/mL
same,IC50,A549,0.37 µg/mL
